In article PMC9698773, “Design, Synthesis, Molecular Modeling, and Anticancer Evaluation of New VEGFR-2 Inhibitors Based on the Indolin-2-One Scaffold” (Pharmaceuticals, 2022):

System: HepG2 cell line
Experiment: MTT cytotoxicity assay, HepG2
Type: cell-based, human
Settings: for IC50: mean ± SD of three experiments
Method: The cytotoxic activities against breast MCF-7 and liver HepG2 cancer cell lines for all the synthesized compounds 3a,b–17a,b were evaluated by MTT-based cytotoxicity assay. Sunitinib was selected as a reference standard in this study, and the results are presented as IC50 in Table 1.
The anticancer activities of the target compounds 3a,b–17a,b were quantitatively assessed using the MTT protocol against the MCF-7 and HepG2 cell lines, as described in the Supplementary Materials. […]
4.2. Biological investigation
4.2.1. In vitro cytotoxic activity assay
Citation: Abdelgawad, M.A.; Cell Line cells were obtained from the American Type Culture Collection. The cells Hayallah A.M.; Bukhari S.N.A.; were cultured using DMEM (Invitrogen/Life Technologies) supplemented with 10% FBS Musa A.; Elmowafy M.; (Hyclone,), 10 ug/ml of insulin (Sigma), and 1% penicillin‐streptomycin. All of the other Abdel‐Rahman, H.M.; chemicals and reagents were from Sigma or Invitrogen. Plate cells (cells density 1.2 – 1.8 Abd El‐Gaber, M.K. Design, × 10,000 cells/well) in a volume of 100μl complete growth medium + 100 μl of the tested Synthesis, Molecular Modeling, and compound per well in a 96‐well plate for 24 hours before the MTT assay. The tested com‐ Anticancer Evaluation of New pounds were dissolved in DMSO just before the test.
VEGFR‐2 Inhibitors Based on the Indolin‐2‐One Scaffold. 4.2.1.1. Cell culture protocol
Pharmaceuticals 2022, 15, x. The culture medium was removed to a centrifuge tube. The cell layer was briefly https://doi.org/10.3390/xxxxx rinsed with 5 mL of 0.25% (w/v) Trypsin and 3 mL of 0.53 mM EDTA solution to remove Academic Editor(s): Mary J. Meegan all traces of serum which contains Trypsin inhibitor. Next, 2.0 to 3.0 ml of Trypsin EDTA Received: 18 October 2022 solution was added to the flask and cells were observed under an inverted microscope Accepted: 9 November 2022 until the cell layer was dispersed (usually within 5 to 15 minutes). Then, 6.0 to 8.0 mL of Published: 14 November 2022 complete growth medium was added and cells aspirated by gently pipetting. The cell suspension was transferred to the centrifuge tube with the medium and cells from step 1, Publisher’s Note: MDPI stays neu‐and centrifuged at approximately 125 xg for 5 to 10 minutes. The supernatant was dis‐ tral with regard to jurisdictional carded and the cell pellet was suspended in fresh growth medium. Appropriate aliquots claims in published maps and institu‐ of the cell suspension were added to new culture vessels and incubated at 37°C for 24 hrs. tional affiliations. After treatment of cells with the serial concentrations of the compound to be tested, incu‐ bation was carried out for 48 h at 37 °C. The plates were examined under an inverted mi‐ croscope and proceeded for the MTT assay […]
Submitted for possible open access 4.2.1.2. […]
HepG‐2) were used in this test. At first, the cell lines were cultured in RPMI‐1640 medium Pharmaceuticals 2022, 15, x. https://doi.org/10.3390/xxxxx. www.mdpi.com/journal/pharmaceuticals […]
Pharmaceuticals 2022, 15, x FOR PEER REVIEW 2 of 22 with 10% fetal bovine serum. Antibiotics (100 units/ml penicillin and100 μg/ml strepto‐ mycin) were added at 37 °C in a 5% CO2 incubator. The cell lines were seeded in a 96‐well plate at a density of 1.0 x 10^4 cells / well at 37 °C for 48 h under 5% CO2. After incubation, the cells were treated with different concentrations of the synthesized compounds and incubated for 24 h. After 24 h of drug treatment, 20 μl of MTT solution (5mg/ml) was added and incubated for 4 h. 100 μl of dimethyl sulfoxide (DMSO) was added into each well to dissolve the formed purple formazan. The colored solution was measured and recorded at an absorbance of 570 nm using a plate reader (EXL 800, USA). The relative cell viability was calculated in percentage as (A570 of treated samples/A570 of untreated sam‐ ple) X 100. The half maximal inhibitory concentration (IC50) values were presented using […]

## O=C1Nc2ccccc2C1=Nc1ccc(C(=O)NNC(=S)Nc2ccccc2)cc1 [Compound 17a, 2-(4-((2-Oxoindolin-3-ylidene)amino)benzoyl)-N-phenylhydrazinecarbothioamide]
Homo sapiens, HepG2, MTT assay
  IC50: 1.13 ± 0.06 µM
MTT assay
  IC50: 1.13 ± 0.06 µM
Ratio of IC50 to sunitinib
  fold more potent than sunitinib, HepG2: two-fold
